Assay results reported in patent US20180360972A1, “THERAPEUTIC COMPOUNDS” (REGENTS OF THE UNIVERSITY OF MINNESOTA, priority 2017, published 2018).
“Also recorded” adds a separate entry of the source.

Columns and labels:
hMC4R = biological target: T1, hMC4R (Homo sapiens, UniProt P32245); test: AlphaScreen cAMP functional bioassay, hMC4R; format: cell-based; conditions: HEK293 cells stably expressing hMC4R
T1 construct: Flag; expressed in transfected cells
Description: Upon agonist stimulation, melanocortin receptors are known to signal through a Gαs-protein mediated signaling pathway that results in intracellular cAMP accumulation.
Stable populations were selected for using G418 selection (0.7-1.0 mg/mL) and used in bioassays unless indicated otherwise. In vitro experimental ligands were dissolved to a 10^−2 M stock in DMSO and stored at −20° C. Subsequent dilutions were performed in each assay's specific buffer to achieve the final concentration in the well. The ligands were assayed as TFA salts.
AlphaScreen cAMP Functional Bioassay
The AlphaScreen® assay was performed as described by manufacturer.
Cells were removed from plates using Gibco® Versene solution and pelleted by centrifugation (Sorvall Super T21 high speed centrifuge, swinging bucket rotor) at 800 rpm for five minutes. […] A 10 μL aliquot of cell suspension was counted manually using a hemocytometer after addition of Trypan blue dye (BioRad). Cells were again pelleted by centrifugation, and DPBS was gently aspirated. The pelleted cells were then resuspended in a solution of freshly made stimulation buffer (Hank's Balanced Salt Solution [HBSS 10× [−] sodium bicarbonate] and [−] phenol red, Gibco®], 0.5 mM isobutylmethylxanthine [IBMX], 5 mM HEPES buffer solution [1M, Gibco®], 0.1% bovine serum albumin [BSA] in Milli-Q water, pH=7.4) and anti-cAMP acceptor beads (1.0 unit per well, AlphaScreen®). […] The cells were then stimulated with ligand diluted in stimulation buffer to achieve their final concentrations in the well ranging from 10^−13 to 10^−4 M. The stimulated plates were incubated in a dark laboratory drawer at room temperature for two hours.
Meanwhile, a biotinylated cAMP/streptavidin donor bead working solution was made by adding biotinylated cAMP (1 Unit/well, AlphaScreen®) and streptavidin donor beads (1 Unit/well, AlphaScreen®) to a lysis buffer (10% Tween-20, 5 mM HEPES buffer solution [1M, Gibco®], 0.1% bovine serum albumin [BSA] in Milli-Q water, pH=7.4). After the two hour stimulation, the biotinylated cAMP/Streptavidin donor bead working solution was added to each well under green light and mixed well by pipetting up and down. The cells were incubated for another two hours at room temperature in a dark drawer at room temperature. The plate was then read on an EnSpire™ Alpha plate reader using a pre-normalized assay protocol set by the manufacturer. Assays were performed with duplicate data points on each plate and repeated in at least three independent experiments.
Dose response curves were analyzed using the PRISM program (v4.0; GraphPad Inc.).

male MC3RKO mice = test: ICV administration, TSE metabolic cages, male MC3RKO mice; format: in vivo
Description: All experiments were performed in accordance with the Institutional Animal Care and Use Committee (IACUC) at the University of Minnesota. Female and male littermates with mixed background from C57BL/6J and 129/Sv inbred strains were 8 weeks old at the time of surgeries. Mice were individually housed after surgeries and for the remainder of the experiment. Mice were maintained on a 12 hr light/dark cycle (Lights off was at 11:59 AM) in a temperature controlled room (23-25° C.). In the nocturnal feeding paradigm, mice had free access to normal chow (Harlan Teklad 2018 Diet: 18.6% crude protein, 6.2% crude fat, 3.5% crude fiber, with energy density of 3.1 kcal/g). […] Mice had free access to tap water throughout all the experiments. The cannula placement validation studies and conventional cage studies were performed in standard mouse polycarbonate conventional cages provided by University of Minnesota's Research Animal Resources (RAR). Weekly cage changes were conducted by lab research staff.
Mice were anesthetize with a mixture of ketamine (100 mg/kg) and xylazine (5 mg/kg) and were positioned in a stereotaxic apparatus (David Kopf Instruments). A 26-gauge cannula (Cat# 81C315GS4SPC; PlasticsOne, Roanoke, Va.) was inserted in the lateral cerebral ventricle at the coordinates 1.0 mm lateral and 0.46 mm posterior to bregma and 2.3 mm ventral to the skull (Franklin, K. B. J. & Paxinos, G. The Mouse Brain in Stereotaxic Coordinates. (Academic Press, 1997)).
As stated above, conventional cage experiments were performed in standard mouse polycarbonate conventional cages. […] All experiments followed a cross-over paradigm in which the mouse received saline and compound on different days with a washout period in between each treatment. Statistical analysis was performed using SPSS V23 software (IBM) using a multivariate general linear model followed by a Bonferroni's post hoc test. Results are presented as Mean±SEM. Statistically significant was considered p<0.05.
In order to more clearly understand the effects of the biased agonism at the MC4R, the effects of administration of CJL-5-58 was explored in MC3R knockout (KO) mice and MC4RKO mice. […] Adverse reactions included two mice dying after the 5 nmol dose. […] The large error in activity may serve as an indication of toxicity. It is currently difficult to decipher whether the adverse reactions observed are due to paradigm effects, genotype difference, or compound toxicity.

[1] = nocturnal paradigm, 1 nmol dose

T1 sequence (P32245 whole entry): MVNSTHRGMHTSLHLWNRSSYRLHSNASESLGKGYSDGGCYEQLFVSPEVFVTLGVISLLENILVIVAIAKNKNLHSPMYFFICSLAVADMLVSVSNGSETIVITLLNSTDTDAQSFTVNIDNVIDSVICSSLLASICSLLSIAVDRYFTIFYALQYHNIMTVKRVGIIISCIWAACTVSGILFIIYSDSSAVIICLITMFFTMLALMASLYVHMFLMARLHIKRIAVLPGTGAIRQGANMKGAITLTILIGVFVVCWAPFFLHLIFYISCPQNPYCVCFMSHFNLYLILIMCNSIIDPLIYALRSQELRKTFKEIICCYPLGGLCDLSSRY

With `CC(=O)N[C@@H](Cc1cnc[nH]1)C(=O)N[C@H](Cc1ccccc1)C(=O)N[C@@H](CCCNC(=N)N)C(=O)N[C@@H](Cc1c[nH]c2ccccc12)C(=O)NCCCOCCOCCOCCCNC(=O)COCC(=O)N[C@@H](Cc1cnc[nH]1)C(=O)N[C@H](Cc1ccc2ccccc2c1)C(=O)N[C@@H](CCCNC(=N)N)C(=O)N[C@@H](Cc1c[nH]c2ccccc12)C(N)=O` [CJL-5-58, Ac-His-DPhe-Arg-Trp-(PEDG20)-His-DNal(2′)-Arg-Trp-NH2] as the molecule, how does the “cAMP agonist potency (in words)” value (hMC4R) read?
The value was “single digit nanomolar agonists”.

And the RER vs saline (male MC3RKO mice; fasting-refeeding, 0.5 nmol)?
The RER vs saline was “significant increase in RER at time point 24 hours”.

What about the “other parameters vs saline” value (male MC3RKO mice; fasting-refeeding, 0.5 nmols) of the same molecule?
Its value is “No other parameters were significantly affected”.

And the RER vs saline (male MC3RKO mice; fasting-refeeding, 1 nmol)?
Its RER vs saline is “significantly reduced at 2 and 3 hours”.

And the “energy expenditure vs saline” value (male MC3RKO mice; fasting-refeeding, 1 nmol)?
The value was “Significant reductions in energy expenditure were observed in the fasting paradigm at time points 1 and 2 hours”.

What about the “food intake vs saline” value (male MC3RKO mice; fasting-refeeding, 1.0 nmol) of the same molecule?
Its value is “Significant reduction in food intake was observed at 2 and 4 hour time points”.

What about the “adverse reactions / toxicity” value (male MC3RKO mice; fasting-refeeding, 1.0 or 0.5 nmols) of the same molecule?
Its value is “some minor signs of adverse reactions; also recorded: Some toxicity was observed”.

And the adverse reactions (male MC3RKO mice; [1])?
Its adverse reactions is “No adverse reactions were observed”.

And the “effects on measured parameters vs saline” value (male MC3RKO mice; [1])?
The value was “no significant effects were observed”.

And the RER vs saline (male MC3RKO mice; nocturnal paradigm, 2.5 nmol)?
The RER vs saline was “significant increased RER was observed 18, 19, and 24 hours”.

What about the “energy expenditure vs saline” value (male MC3RKO mice; nocturnal paradigm, 2.5 nmol) of the same molecule?
Its value is “significant reduced 1-8 and 13 hours post-treatment”.

And the “energy expenditure vs saline” value (male MC3RKO mice; nocturnal paradigm, 5 nmol)?
The value was “significantly reduced at time points 1-3 hrs”.

What about the “food intake vs saline” value (male MC3RKO mice; nocturnal paradigm, 5 nmol) of the same molecule?
The value was “decreased at time points 2-12 hours”.

What about the “number of mice dying” value (male MC3RKO mice; nocturnal paradigm, 5 nmol dose) of the same molecule?
The value was “two”.

What about the activity vs saline (male MC3RKO mice; nocturnal paradigm, 5 nmols) of the same molecule?
The activity vs saline was “trended towards being lowered (p=0.069)”.

And the RER vs saline (male MC3RKO mice; nocturnal paradigm, 5 nmols (dose not restated for CJL-5-58))?
The RER vs saline was “significantly decreased at time points 1-5, 8 and 12 hours”.

What about the “adverse reactions / toxicity” value (male MC3RKO mice; nocturnal paradigm, 2.5 to 5 nmols) of the same molecule?
The value was “adverse reactions were also observed at the 2.5 and 5 nmol concentrations; also recorded: Some toxicity was observed”.
